Source: patent publication US12318398B2, “MST1 kinase inhibitor and use thereof” (priority 2018, dated 2025)
Like-named read-outs stand apart in the source and are kept apart here.

Legend:
MST1 = MST1 (Homo sapiens (Human), UniProt Q13043); assay: In vitro enzyme activity test (ADP-GLO); type: biochemical
Protocol: The IC50 values of the compounds against MST1 were determined. The protein kinase MST1 and the substrate were obtained from commercial sources.
5.4 μL of protein kinase MST1 diluted to a certain concentration (final concentration was 2.5 ng/μL) and 1 μL of serially diluted drug compounds and control compound XMU-MP-1 were taken to react at room temperature for 10 minutes (final drug concentrations were 10 μM, 1 μM, 0.3 μM, 0.1 μM, 0.03 μM, 0.01 μM, 0.003 μM, 0.001 μM, respectively).
6 μL of a mixture of ATP (with a final reaction concentration of 50 μM) and substrate was added to the above reaction tube to react at 37° C. for 1 hour. The reaction buffer was 40 mM Tris, 7.5; 20 mM MgCl2; 0.1 mg/ml BSA; 50 μM DTT.
5 μL of the kinase mixture after the reaction was taken to a 384-well plate, and 5 μL of ADP-GLO™ reagent was added thereto. After reaction at room temperature for 40 minutes, the kinase reaction was terminated and the remaining ATP was consumed.
10 μL of a kinase detection reagent was added to convert ADP into ATP, and a coupled luciferase/luciferin reaction was utilized to detect the newly synthesized ATP. Envision was used to read and plot the data, and calculate the IC50 value.

C57BL/6 mice = assay: Liver injury repair experiment (paracetamol/APAP-induced); type: in vivo
Protocol: C57BL/6 mice, male, 20 g, were maintained in a SPF animal room. Thirty C57BL/6 mice were fasted for 12 hours overnight, and 5 mice of which were intraperitoneally injected with normal saline to act as a normal control group, and the other 25 mice were intraperitoneally injected with paracetamol (APAP) (purchased from Sigma)-600 mg/kg, and randomly divided into 5 groups after 30 minutes, wherein the 5 groups include vehicle (5% DMSO in water), compound 1-1-po, compound 1-2-po, compound 1-4-po, XMU-MP-1-ip groups. Mice in the vehicle group were administered intragastrically with vehicle control; mice in the compound 1-1-po, compound 1-2-po, compound 1-4-po groups were administered intragastrically with compound 1 at 1 mg/kg, 2 mg/kg or 4 mg/kg, respectively; mice in the XMU-MP-1-ip group were intraperitoneally administered with the control compound XMU-MP-1 at 1 mg/kg. After the administration, the body weight of the mice was monitored and the survival status of the mice was observed.

PDX1 = assay: Effect on insulin secretion transcription factor PDX1 in pancreatic β cells; type: cell-based, mouse; details: MIN-6 cells, 72 hours, 33.3 mM glucose
Protocol: (§1) The effects of compound 1 and the control compound XMU-MP-1 on MST1 signaling pathway such as autophosphorylation of MST1, apoptosis signaling pathway such as cleavage of four proteins Caspase9/7/3 and PARP, expression of BIM, BAX, BCL-2, BCL-XL protein, proliferation-related signaling pathway such as autophosphorylation of AKT and ERK, and phosphorylation and protein expression of insulin secretion transcription factor PDX1 were tested in mouse pancreatic β-cells, MIN-6 cells (Hunan Fenghuishengwu technology Co., Ltd.). Compound 1 of different concentrations (0 μM, 0.3 μM, 1 μM, 3 μM in DMSO) and XMU-MP-1 of 1 μM (in DMSO) were used to treat the cell line for 72 hours in a medium with a glucose content of 33.3 mM, respectively. One of the control DMSO group involved 5.5 mM glucose and the other one involved 33.3 mM glucose. The samples were collected.

[1] = test system: autophosphorylation of MST1; assay: Effect on MST1 signaling pathway of pancreatic β cells; type: cell-based, mouse; details: MIN-6 cells, 1 μM, 72 hours, 33.3 mM glucose
Protocol: as §1

MIN-6 cells = assay: Proliferation of MIN-6 cells (cell counter); details: 0.3-3 μM, 72 hours, as the drug concentration increases
Protocol: as §1
JIMBIO cell counter (EXCEL HERO TECHNOLOGY LIMITED) was used to detect the effect on the proliferation of MIN-6 cells after 72 hours of the administration.

[2] = test system: Caspase9/7/3, PARP, BIM, BCL-XL; assay: Effect on apoptosis signaling pathway of pancreatic β cells; type: cell-based, mouse; details: MIN-6 cells, 1 μM, 72 hours, 33.3 mM glucose
Protocol: as §1

[3] = test system: autophosphorylation of AKT and ERK; assay: Effect on proliferation-related signaling pathway of pancreatic β cells; type: cell-based, mouse; details: MIN-6 cells, 72 hours, 33.3 mM glucose
Protocol: as §1

[4] = read-out: MST1 (IC50/μM), ATP 50 μM, 37° C. 1 hour
[5] = ATP 50 μM, 37° C. 1 hour, read-out: MST1 (IC50/μM)

Chain of MST1 (Q13043 whole entry): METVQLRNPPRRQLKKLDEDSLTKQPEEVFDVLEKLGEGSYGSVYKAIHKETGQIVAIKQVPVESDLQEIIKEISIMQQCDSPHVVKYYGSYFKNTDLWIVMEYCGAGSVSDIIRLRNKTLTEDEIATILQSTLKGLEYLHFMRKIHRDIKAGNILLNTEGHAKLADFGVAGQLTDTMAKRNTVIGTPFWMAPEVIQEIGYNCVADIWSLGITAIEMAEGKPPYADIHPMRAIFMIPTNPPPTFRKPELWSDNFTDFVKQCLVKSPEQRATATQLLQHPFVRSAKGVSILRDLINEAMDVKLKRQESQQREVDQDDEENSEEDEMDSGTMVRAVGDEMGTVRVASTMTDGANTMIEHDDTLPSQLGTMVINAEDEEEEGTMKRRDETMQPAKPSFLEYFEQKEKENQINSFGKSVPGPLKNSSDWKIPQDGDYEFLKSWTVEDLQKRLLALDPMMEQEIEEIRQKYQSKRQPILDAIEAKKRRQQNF

| IC50 (MST1; [4]) [µM] | SMILES | IC50 (MST1; [5]) [µM] | other results |
| --- | --- | --- | --- |
| 0.197 | CN1C(=O)[C@H](c2ccccc2)N(C)c2nc(Nc3ccc(S(N)(=O)=O)cc3)ncc21 [Compound 4, (S)-4-((5,8-dimethyl-6-oxo-7-phenyl-5,6,7,8-tetrahydropteridin-2-yl)amino)benzsulfamide] |  |  |
| 0.143 | CN1C(=O)C(c2ccccc2)N(C)c2nc(Nc3ccc(S(=O)(=O)NC4CC4)cc3)ncc21 (centres unmarked) [Compound 6, N-cyclopropyl-4-((5,8-dimethyl-6-oxo-7-phenyl-5,6,7,8-tetrahydropteridin-2-yl)amino)benzsulfamide] |  |  |
|  | CN1C(=O)C2(CC2)N(C)c2nc(Nc3ccc(S(N)(=O)=O)cc3)ncc21 [Compound 7, 4-((5′,8′-dimethyl-6′-oxo-5′,8′-dihydro-6′H-spiro[cyclopropan-1,7′-pteridin]-2′-yl)amino)benzsulfamide] | 0.103 |  |
| 0.0987 | CN1C(=O)[C@@H](c2ccccc2)N(C)c2nc(Nc3ccc(S(N)(=O)=O)cc3)ncc21 [Compound 10, (R)-4-((5,8-dimethyl-6-oxo-7-phenyl-5,6,7,8-tetrahydropteridin-2-yl)amino)benzsulfamide] |  |  |
|  | CN1C(=O)C(c2cccc(F)c2)N(C)c2nc(Nc3ccc(S(N)(=O)=O)cc3)ncc21 (centres unmarked) [Compound 11, 4-((7-(3-fluorophenyl)-5,8-dimethyl-6-oxo-5,6,7,8-tetrahydropteridin-2-yl)amino)benzsulfamide] | 0.134 |  |
|  | CN1C(=O)C2(CCCC2)N(C)c2nc(Nc3ccc(S(N)(=O)=O)cc3)ncc21 [Compound 14, 4-((5′,8′-dimethyl-6′-oxo-5′,8′-dihydro-6′H-spiro[cyclopentan-1,7′-pteridin]-2′-yl)amino)benzsulfamide] | 0.129 |  |
|  | CN1C(=O)C2(CCC2)N(C)c2nc(Nc3ccc(S(N)(=O)=O)cc3)ncc21 [Compound 15, 4-((5′,8′-dimethyl-6′-oxo-5′,8′-dihydro-6′H-spiro[cyclobutan-1,7′-pteridin]-2′-yl)amino)benzsulfamide] | 0.141 |  |
|  | CC(C)CC1C(=O)N(C)c2cnc(Nc3ccc(S(N)(=O)=O)cc3)nc2N1C (centres unmarked) [Compound 16, 4-((7-isobutyl-5,8-dimethyl-6-oxo-5,6,7,8-tetrahydropteridin-2-yl)amino)benzsulfamide] | 0.0767 |  |
|  | CCCC1C(=O)N(C)c2cnc(Nc3ccc(S(N)(=O)=O)cc3)nc2N1C (centres unmarked) [Compound 17, 4-((5,8-dimethyl-6-oxo-7-propyl-5,6,7,8-tetrahydropteridin-2-yl)amino)benzsulfamide] | 0.206 |  |
|  | CN1C(=O)C(C2CC2)N(C)c2nc(Nc3ccc(S(N)(=O)=O)cc3)ncc21 (centres unmarked) [Compound 19, 4-((7-cyclopropyl-5,8-dimethyl-6-oxo-5,6,7,8-tetrahydropteridin-2-yl)amino)benzsulfamide] | 0.137 |  |
|  | CN1C(=O)C(c2cccs2)N(C)c2nc(Nc3ccc(S(N)(=O)=O)cc3)ncc21 (centres unmarked) [Compound 20, 4-((5,8-dimethyl-6-oxo-7-(thien-2-yl)-5,6,7,8-tetrahydropteridin-2-yl)amino)benzsulfamide] | 0.0879 |  |
|  | CN1C(=O)C(c2ccccc2F)N(C)c2nc(Nc3ccc(S(N)(=O)=O)cc3)ncc21 (centres unmarked) [Compound 21, 4-((7-(2-fluorophenyl)-5,8-dimethyl-6-oxo-5,6,7,8-tetrahydropteridin-2-yl)amino)benzsulfamide] | 0.0753 |  |
|  | CN1C(=O)C(c2ccccc2C(F)(F)F)N(C)c2nc(Nc3ccc(S(N)(=O)=O)cc3)ncc21 (centres unmarked) [Compound 22, 4-((5,8-dimethyl-6-oxo-7-(2-(trifluoromethyl)phenyl)-5,6,7,8-tetrahydropteridin-2-yl)amino)benzsulfamide] | 0.0563 |  |
| 0.0227 | Cc1ccccc1C1C(=O)N(C)c2cnc(Nc3ccc(S(N)(=O)=O)cc3)nc2N1C (centres unmarked) [Compound 25, 4-((5,8-dimethyl-6-oxo-7-(o-methylphenyl)-5,6,7,8-tetrahydropteridin-2-yl)amino)benzsulfamide] |  |  |
| 0.113 | CN1C(=O)C(c2c(F)cccc2F)N(C)c2nc(Nc3ccc(S(=O)(=O)NC4CC4)cc3)ncc21 (centres unmarked) [Compound 27, N-cyclopropyl-4-((7-(2,6-difluorophenyl)-5,8-dimethyl-6-oxo-5,6,7,8-tetrahydropteridin-2-yl)amino)benzsulfamide] |  |  |
| 0.0316 | CN1C(=O)C(c2c(F)cccc2F)N(C)c2nc(Nc3ccc(S(=O)(=O)N(C)C4CC4)cc3)ncc21 (centres unmarked) [Compound 32, N-cyclopropyl-4-((7-(2,6-difluorophenyl)-5,8-dimethyl-6-oxo-5,6,7,8-tetrahydropteridin-2-yl)amino)-N-methylbenzsulfamide] |  |  |
|  | CN1C(=O)C(c2c(F)cccc2F)N(C)c2nc(Nc3ccc(S(=O)(=O)NCC4CC4)cc3)ncc21 (centres unmarked) [Compound 33, N-(cyclopropylmethyl)-4-((7-(2,6-difluorophenyl)-5,8-dimethyl-6-oxo-5,6,7,8-tetrahydropteridin-2-yl)amino)benzsulfamide] | 0.0796 |  |
| 0.0516 | CCNS(=O)(=O)c1ccc(Nc2ncc3c(n2)N(C)C(c2c(F)cccc2F)C(=O)N3C)cc1 (centres unmarked) [Compound 38, 4-((7-(2,6-difluorophenyl)-5,8-dimethyl-6-oxo-5,6,7,8-tetrahydropteridin-2-yl)amino)-N-ethylbenzsulfamide] |  |  |

| SMILES | IC50 (MST1; [4]) [µM] | IC50 (MST1; [5]) [µM] | other results |
| --- | --- | --- | --- |
| CN1C(=O)C(c2c(F)cccc2F)N(C)c2nc(Nc3ccc(S(N)(=O)=O)cc3)ncc21 (centres unmarked) [Compound 1, 4-((7-(2,6-difluorophenyl)-5,8-dimethyl-6-oxo-5,6,7,8-tetrahydropteridin-2-yl)amino)benzsulfamide] | 0.023 |  | survival rate of the mice (C57BL/6 mice; 1 mg/kg intragastrically after APAP 600 mg/kg ip): 80%; survival of the mice (C57BL/6 mice; 2 mg/kg intragastrically after APAP 600 mg/kg ip): all escaped from death; survival of the mice (C57BL/6 mice; 4 mg/kg intragastrically after APAP 600 mg/kg ip): all escaped from death; weight of mice (C57BL/6 mice; after APAP 600 mg/kg ip, compound 1 po 1-4 mg/kg, XMU-MP-1 ip 1 mg/kg): can gradually recover; expression of PDX1 (PDX1): promotes the expression of PDX1 to a certain extent; phosphorylation of the transcription factor PDX1 (PDX1): a certain inhibitory effect; autophosphorylation of MST1 [1]: significantly inhibit; cell proliferation (MIN-6 cells): can promote cell proliferation; cleavage of the four proteins Caspase9/7/3 and PARP [2]: inhibit the cleavage; expression of pro-apoptosis-related proteins such as BIM [2]: down-regulate; expression of the anti-apoptotic protein BCL-XL [2]: promote the expression; AKT autophosphorylation [3]: does not affect; ERK autophosphorylation [3]: can activate |
